The source of these data is ChEMBL document CHEMBL1201862, “PubChem BioAssay data set” (2004).

Counter-ions that a name gives are not always drawn.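 How tested: cells in 96-well plates exposed to compound for 48 hours at five concentrations. GI50 marks 50% less growth.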 The source made the active and inactive calls. Rule as the data show it: active = GI50 up to about 1.1 µM and inactive = higher.

Experiment in all cases: DTP human tumour cell line panel, 48 h
Experiment [1] has as its system NCI-H460.
Experiment [2] relates to T47D.
Experiment [3] relates to NCI-H23.
For experiment [4], the system named is SK-OV-3.
Experiment [5] concerns UO-31.
Experiment [6] has as its system NCI-H226.
Experiment [7] has as its system SNB-75.
For experiment [8], the system named is BT-549.
For experiment [9], the system named is 786-0.
Experiment [10] deals with CCRF-CEM.
Experiment [11] has as its system Malme-3M.
In experiment [12] the test system is HL-60.
Experiment [13] relates to K562.
For experiment [14], the system named is Hs-578T.
The subject of experiment [15] is DU-145.
In experiment [16] the test system is EKVX.
Experiment [17] relates to NCI/ADR-RES.
Experiment [18] relates to COLO 205.
Experiment [19] relates to SNB-19.
Experiment [20] relates to TK-10.

With `CC(=O)c1cc2c(s1)C(=O)c1ccccc1C2=O`, the GI50 (in general, the concentration giving 50% growth inhibition) in [1] was 1.05 µM (active); in [2], 4.42 µM (inactive); in experiment [3] it was 0.457 µM (active); in experiment [4], 15.3 µM (inactive); in [5] it was 1.79 µM (inactive); in experiment [6], 2.61 µM (inactive). Also, the GI50 in experiment [7] was 2.4 µM (inactive); in experiment [8] it was 1.62 µM (inactive); in [9], 5.93 µM (inactive); in experiment [10], 1.96 µM (inactive); in [11] it was 1.28 µM (inactive); in experiment [12], 2.13 µM (inactive). The GI50 in experiment [13] was 2.09 µM (inactive); in [14], 2.84 µM (inactive); in experiment [15] it was 1.26 µM (inactive); in experiment [16] it was 4.39 µM (inactive); in experiment [17], 1.89 µM (inactive); in experiment [18] it was 4.72 µM (inactive). Besides, the GI50 in experiment [19] is 0.424 µM (active); in experiment [20], 5.47 µM (inactive).

With `CC(O)CC(=O)CO[C@H]1[C@H](O)[C@@H](O)[C@@H](O)[C@@H]2NC(=O)c3c(cc4c(c3O)OCO4)[C@H]21` (stereo not given in full), the GI50 in experiment [1] was 0.0275 µM (active); in [2], 0.0222 µM (active); in experiment [3], 0.0335 µM (active); in experiment [4], 0.0617 µM (active); in experiment [5], 0.115 µM (active); in experiment [6] it was 0.0499 µM (active). Moreover, the GI50 in [7] was 0.0472 µM (active); in [8], 0.0509 µM (active); in experiment [9], 0.0439 µM (active); in [10] it was 0.0184 µM (active); in experiment [11], 0.0118 µM (active); in experiment [12], 0.0386 µM (active). The GI50 is 0.0392 µM (active) in [13]; 0.0398 µM (active) in experiment [14]; 0.0214 µM (active) in [15]; 0.0266 µM (active) in experiment [16]; 1.29 µM (inactive) in experiment [17]; 0.0332 µM (active) in [18]. Further, the 50% growth inhibitory concentration (GI50) in [19] is < 0.0156 µM (active); in [20] it was 0.0353 µM (active).

`CCN(CC)CCCNc1ccc2nnn3c4ccc(O)cc4c(=O)c1c23`: the GI50 is 0.653 µM (active) in experiment [1]; 22.3 µM (inactive) in experiment [2]; 11.2 µM (inactive) in [3]; 8.87 µM (inactive) in experiment [4]; 0.968 µM (active) in experiment [5]; 6.87 µM (inactive) in experiment [6]. Further, the GI50 in [7] was 7.48 µM (inactive); in experiment [8], 14 µM (inactive); in [9], 5.71 µM (inactive); in experiment [10] it was 2.29 µM (inactive); in [11], 13.1 µM (inactive); in experiment [12], 5.55 µM (inactive). Further, the GI50 in experiment [13] is 7.23 µM (inactive); in experiment [14], 14.4 µM (inactive); in [15], 11.9 µM (inactive); in experiment [16] it was 16.1 µM (inactive); in experiment [17], 7.14 µM (inactive); in experiment [18], 2.81 µM (inactive). The GI50 in experiment [19] was 10.1 µM (inactive); in [20], 3.28 µM (inactive).

For `CN1CCC(CN2c3ccccc3Sc3ccccc32)C1` (stereo not given) [METHDILAZINE HYDROCHLORIDE], the GI50 was 13.9 µM (inactive) in [1]; 15.8 µM (inactive) in [2]; 20.3 µM (inactive) in experiment [3]; 17.3 µM (inactive) in experiment [4]; 14.8 µM (inactive) in experiment [5]; 19.5 µM (inactive) in experiment [6]. The GI50 was 1.79 µM (inactive) in [7]; 16.8 µM (inactive) in experiment [8]; 14.7 µM (inactive) in experiment [9]; 15.2 µM (inactive) in experiment [10]; 16.5 µM (inactive) in experiment [11]; 14.7 µM (inactive) in [12]. The GI50 is 12.3 µM (inactive) in experiment [13]; 15.4 µM (inactive) in experiment [14]; 17.8 µM (inactive) in experiment [15]; 16.8 µM (inactive) in [16]; 15.2 µM (inactive) in experiment [17]; 11.5 µM (inactive) in experiment [18]. For the same molecule, the GI50 in [19] is 17.9 µM (inactive); in [20], 17.6 µM (inactive).

In the case of `CC(=O)OCC1OC(OCCCOP(=O)(OCCC#N)OCC2OC(n3cnc4c(N)ncnc43)C(OC(=O)c3ccccc3)C2OC(=O)c2ccccc2)C(OC(C)=O)C(OC(C)=O)C1OC(C)=O` (stereo not given), the GI50 in experiment [1], in experiment [2], in [3], in experiment [4], in [5] and in experiment [6] was > 100 µM (inactive) each time. Further, the GI50 in experiment [7] was > 75 µM (inactive); in experiment [8] it was > 100 µM (inactive); in [9], > 100 µM (inactive); in [10] it was > 100 µM (inactive); in [11], 1.06 µM (active); in [12], > 100 µM (inactive). The GI50 in [13] was > 100 µM (inactive); in [14] it was 28.7 µM (inactive); in experiment [15], > 100 µM (inactive); in experiment [16], > 100 µM (inactive); in experiment [17], > 100 µM (inactive); in experiment [18] it was > 100 µM (inactive). The GI50 in experiment [19] and in [20] was > 100 µM (inactive) throughout.

`CCOC(=O)C(CCN1CCC2(CC1)C(=O)N(C)CN2c1ccccc1)C(=O)OCC`: the GI50 in [1], in experiment [2], in experiment [3], in experiment [4], in [5] and in [6] was > 100 µM (inactive) throughout. Moreover, the GI50 in experiment [7], in experiment [8], in experiment [9], in experiment [10], in [11] and in experiment [12] was > 100 µM (inactive) throughout. Besides, the GI50 in experiment [13], in experiment [14], in experiment [15], in experiment [16], in experiment [17] and in [18] was > 100 µM (inactive) throughout. Also, the GI50 in [19] and in experiment [20] was > 100 µM (inactive) each time.

`CN(C)CCC(=O)[C@@]1(O)CC[C@H]2[C@@H]3CC=C4C[C@@H](O)CC[C@]4(C)[C@H]3CC[C@@]21C`: the GI50 in experiment [1] is 15.4 µM (inactive); in [2] it was 4.11 µM (inactive); in [3], 23.6 µM (inactive); in experiment [4], 29.8 µM (inactive); in experiment [5], 15.6 µM (inactive); in [6] it was 62.8 µM (inactive). In addition, the GI50 is 15.2 µM (inactive) in experiment [7]; 17.9 µM (inactive) in [8]; 3.68 µM (inactive) in experiment [9]; 5.25 µM (inactive) in [10]; 15.3 µM (inactive) in experiment [11]; 17.4 µM (inactive) in experiment [12]. Further, the GI50 was 18.2 µM (inactive) in experiment [13]; 20.7 µM (inactive) in experiment [14]; 6.65 µM (inactive) in experiment [15]; 20.7 µM (inactive) in [16]; 26.7 µM (inactive) in [17]; 18.4 µM (inactive) in experiment [18]. The GI50 was 25.6 µM (inactive) in [19] and 2.1 µM (inactive) in experiment [20].

Regarding `COc1ccc(-c2cc(-c3ccccc3)nc(/N=C\c3ccccc3)n2)c(O)c1`, the GI50 was 6.81 µM (inactive) in experiment [1]; 5.62 µM (inactive) in experiment [2]; > 100 µM (inactive) in [3]; 7.52 µM (inactive) in experiment [4]; 3.99 µM (inactive) in [5]; > 100 µM (inactive) in experiment [6]. Also, the GI50 was > 100 µM (inactive) in experiment [7]; > 31.3 µM (inactive) in experiment [8]; > 100 µM (inactive) in experiment [9]; 4.06 µM (inactive) in experiment [10]; > 80.4 µM (inactive) in experiment [11]; 2.71 µM (inactive) in experiment [12]. The GI50 in experiment [13] was 2.44 µM (inactive); in experiment [14], > 100 µM (inactive); in experiment [15], 7.62 µM (inactive); in experiment [16], > 26.4 µM (inactive); in experiment [17], > 86.5 µM (inactive); in experiment [18] it was > 100 µM (inactive). Besides, the GI50 in experiment [19] was > 36.5 µM (inactive); in experiment [20] it was > 100 µM (inactive).

For `O=C1c2ccccc2-c2nc(-c3cccc([N+](=O)[O-])c3)nnc21`, the GI50 in [1] was 3.96 µM (inactive); in experiment [2] it was 44.5 µM (inactive); in [3], 17.6 µM (inactive); in experiment [4] it was > 100 µM (inactive); in experiment [5], 12.3 µM (inactive); in [6], 7.91 µM (inactive). Moreover, the GI50 is 21.4 µM (inactive) in [7]; 19.5 µM (inactive) in experiment [8]; 30.5 µM (inactive) in experiment [9]; 7.14 µM (inactive) in experiment [10]; 17.5 µM (inactive) in [11]; 3.07 µM (inactive) in [12]. The GI50 is 5.94 µM (inactive) in experiment [13]; 12.4 µM (inactive) in experiment [14]; 4.25 µM (inactive) in experiment [15]; 7.38 µM (inactive) in [16]; 13.4 µM (inactive) in experiment [17]; 3.91 µM (inactive) in experiment [18]. Moreover, the GI50 in experiment [19] is 13.9 µM (inactive); in experiment [20] it was 18.7 µM (inactive).

With `CCOP(=O)(OCC)OC1c2[nH]cc(C(=O)OCc3ccccc3)c2-c2cc(C(=O)OC)[nH]c2C1OC` (stereo not given), the GI50 in [1] was 4.55 µM (inactive); in [2] it was 7.91 µM (inactive); in [3], 13.4 µM (inactive); in experiment [4], 17.7 µM (inactive); in [5] it was 4.57 µM (inactive); in [6], 16.1 µM (inactive). In addition, the GI50 is 13.2 µM (inactive) in [7]; 12.1 µM (inactive) in experiment [8]; 7.76 µM (inactive) in experiment [9]; > 24.8 µM (inactive) in experiment [10]; 9.06 µM (inactive) in [11]; 6.15 µM (inactive) in experiment [12]. Further, the GI50 in [13] is > 20 µM (inactive); in experiment [14], 16.8 µM (inactive); in experiment [15], 11 µM (inactive); in [16] it was 5.94 µM (inactive); in [17] it was 7.53 µM (inactive); in [18], 6.89 µM (inactive). The GI50 in [19] is 14.7 µM (inactive); in [20], 4.91 µM (inactive).
